Tests used:
Assay type in all cases: cell-based
Conditions in all cases: compound concentration 50 μM, 72 hours
SU-DHL6 = assay: Inhibition of tumor cell proliferation, CellTiter-Glo, SU-DHL6
Procedure: (§1) For various cell lines, the corresponding complete medium was used, and culture was carried out in an incubator at 37° C. with 5% CO2. The cells were counted, and inoculated into a 96-well plate at 2000-10000 cells/100 μl per well according to the cell volume and growth rate. The suspended cells were treated immediately, and the adherent cells were treated after adherence. The CellTiter-Glo method was used to detect the changes in cell viability 72 hours after the administration, and the cell survival rate at different concentrations was calculated by a formula: Survival rate (%)=(RLU of treatment well−RLU of blank well)/(RLU of control well−RLU of blank well)×100.
(§2) Method for expressing the inhibitory activity of the compounds against the proliferation of tumor cells: Evaluation was made based on the cell survival rate at a compound concentration of 50 μM. 60≤survival rate (%)<90 is considered to have low inhibitory activity against the proliferation of tumor cells (+); 30<survival rate (%)≤60 is considered to have moderate inhibitory activity against the proliferation of tumor cells (++); and survival rate (%)≤30 is considered to have high inhibitory activity against the proliferation of tumor cells (+++).

RPMI-8226 = assay: Inhibition of tumor cell proliferation, CellTiter-Glo, RPMI-8226
Procedure: as §1, §2

K562 = assay: Inhibition of tumor cell proliferation, CellTiter-Glo, K562
Procedure: as §1, §2

A549 = assay: Inhibition of tumor cell proliferation, CellTiter-Glo, A549
Procedure: as §1, §2

MDA-MB-453 = assay: Inhibition of tumor cell proliferation, CellTiter-Glo, MDA-MB-453
Procedure: as §1, §2

BxPC-3 = assay: Inhibition of tumor cell proliferation, CellTiter-Glo, BxPC-3
Procedure: as §1, §2

Row | SMILES | Inhibitory activity against proliferation (cell survival rate) SU-DHL6 (SU-DHL6) | Inhibitory activity against proliferation (cell survival rate) RPMI-8226 (RPMI-8226) | Inhibitory activity against proliferation (cell survival rate) K562 (K562) | Inhibitory activity against proliferation (cell survival rate) A549 (A549) | Inhibitory activity against proliferation (cell survival rate) MDA-MB-453 (MDA-MB-453) | Inhibitory activity against proliferation (cell survival rate) BxPC-3 (BxPC-3) | cell survival rate (% of control) at 50 µM (SU-DHL6; Homo sapiens, SU-DHL-6, read-out: Inhibitory activity against proliferation (cell survival rate) SU-DHL6) | cell survival rate (% of control) at 50 µM (RPMI-8226; Homo sapiens, RPMI-8226, read-out: Inhibitory activity against proliferation (cell survival rate) RPMI-8226) | cell survival rate (%) at 50 µM (K562; Homo sapiens, K562, read-out: Inhibitory activity against proliferation (cell survival rate) K562) | cell survival rate (% of control) at 50 µM (A549; Homo sapiens, A549, read-out: Inhibitory activity against proliferation (cell survival rate) A549) | cell survival rate (%) at 50 µM (MDA-MB-453; Homo sapiens, MDA-MB-453, read-out: Inhibitory activity against proliferation (cell survival rate) MDA-MB-453) | cell survival rate (%) at 50 µM (BxPC-3; Homo sapiens, BXPC-3, read-out: Inhibitory activity against proliferation (cell survival rate) BxPC-3)
1 | O=C1CCC(N2C(=O)c3cccc(NC=C4C(=O)CC(c5ccccc5)CC4=O)c3C2=O)C(=O)N1 (centres unmarked) [Compound 2] | +++ (survival rate (%)≤30) | ++ (30<survival rate (%)≤60) | +++ (survival rate (%)≤30) | ++ (30<survival rate (%)≤60) | + (60≤survival rate (%)<90) | + (60≤survival rate (%)<90) | – | – | – | – | – | –
2 | Cc1ccccc1C1CC(=O)C(=CNc2cccc3c2CN(C2CCC(=O)NC2=O)C3=O)C(=O)C1 (centres unmarked) [Compound 4] | + (60≤survival rate (%)<90) | +++ (survival rate (%)≤30) | ++ (30<survival rate (%)≤60) | + (60≤survival rate (%)<90) | + (60≤survival rate (%)<90) | + (60≤survival rate (%)<90) | – | – | – | – | – | –
3 | O=C1CCC(N2Cc3cc(NC=C4C(=O)CC(c5ccccc5)CC4=O)ccc3C2=O)C(=O)N1 (centres unmarked) [Compound 8] | + (60≤survival rate (%)<90) | ++ (30<survival rate (%)≤60) | ++ (30<survival rate (%)≤60) | ++ (30<survival rate (%)≤60) | + (60≤survival rate (%)<90) | ++ (30<survival rate (%)≤60) | – | – | – | – | – | –
4 | O=C1CCC(N2C(=O)c3ccc(NC=C4C(=O)CC(c5ccccc5)CC4=O)cc3C2=O)C(=O)N1 (centres unmarked) [Compound 9] | + (60≤survival rate (%)<90) | ++ (30<survival rate (%)≤60) | ++ (30<survival rate (%)≤60) | ++ (30<survival rate (%)≤60) | + (60≤survival rate (%)<90) | ++ (30<survival rate (%)≤60) | – | – | – | – | – | –
5 | O=C1CCC(N2Cc3ccc(NC=C4C(=O)CC(c5ccccc5)CC4=O)cc3C2=O)C(=O)N1 (centres unmarked) [Compound 10] | + (60≤survival rate (%)<90) | ++ (30<survival rate (%)≤60) | ++ (30<survival rate (%)≤60) | + (60≤survival rate (%)<90) | + (60≤survival rate (%)<90) | ++ (30<survival rate (%)≤60) | – | – | – | – | – | –
6 | O=C1CCC(N2Cc3c(NC=C4C(=O)CC(c5ccc(OC(F)(F)F)cc5)CC4=O)cccc3C2=O)C(=O)N1 (centres unmarked) [Compound 22] | + (60≤survival rate (%)<90) | + (60≤survival rate (%)<90) | + (60≤survival rate (%)<90) | + (60≤survival rate (%)<90) | ++ (30<survival rate (%)≤60) | ++ (30<survival rate (%)≤60) | – | – | – | – | – | –
7 | O=C1CCC(N2Cc3c(NC=C4C(=O)CC(c5ccccc5C(F)(F)F)CC4=O)cccc3C2=O)C(=O)N1 (centres unmarked) [Compound 23] | +++ (survival rate (%)≤30) | +++ (survival rate (%)≤30) | ++ (30<survival rate (%)≤60) | +++ (survival rate (%)≤30) | ++ (30<survival rate (%)≤60) | ++ (30<survival rate (%)≤60) | – | – | – | – | – | –
8 | O=C1CCC(N2Cc3c(NC=C4C(=O)CC(c5ccccc5F)CC4=O)cccc3C2=O)C(=O)N1 (centres unmarked) [Compound 24] | +++ (survival rate (%)≤30) | + (60≤survival rate (%)<90) | + (60≤survival rate (%)<90) | ++ (30<survival rate (%)≤60) | ++ (30<survival rate (%)≤60) | ++ (30<survival rate (%)≤60) | – | – | – | – | – | –
9 | O=C1CCC(N2Cc3c(NC=C4C(=O)CC(c5cccc6sccc56)CC4=O)cccc3C2=O)C(=O)N1 (centres unmarked) [Compound 27] | +++ (survival rate (%)≤30) | +++ (survival rate (%)≤30) | +++ (survival rate (%)≤30) | +++ (survival rate (%)≤30) | +++ (survival rate (%)≤30) | + (60≤survival rate (%)<90) | – | – | – | – | – | –
10 | O=C1CCC(N2Cc3c(NC=C4C(=O)CC(c5ccccc5)C(F)C4=O)cccc3C2=O)C(=O)N1 (centres unmarked) [Compound 28] | – | – | – | – | – | – | ≤ 30% | ≤ 30% | ≤ 30% | ≤ 30% | ≤ 30% | 30 to 60%
11 | O=C1CCC(N2Cc3c(NC=C4C(=O)CC(c5cccc6ccccc56)CC4=O)cccc3C2=O)C(=O)N1 (centres unmarked) [Compound 29] | ++ (30<survival rate (%)≤60) | +++ (survival rate (%)≤30) | +++ (survival rate (%)≤30) | +++ (survival rate (%)≤30) | +++ (survival rate (%)≤30) | ++ (30<survival rate (%)≤60) | – | – | – | – | – | –
12 | O=C1CCC(N2Cc3c(NC=C4C(=O)CC(c5c6ccccc6cc6ccccc56)CC4=O)cccc3C2=O)C(=O)N1 (centres unmarked) [Compound 30] | +++ (survival rate (%)≤30) | +++ (survival rate (%)≤30) | +++ (survival rate (%)≤30) | +++ (survival rate (%)≤30) | +++ (survival rate (%)≤30) | + (60≤survival rate (%)<90) | – | – | – | – | – | –
13 | CN(C)c1ccc(Br)c(C2CC(=O)C(=CNc3cccc4c3CN(C3CCC(=O)NC3=O)C4=O)C(=O)C2)c1 (centres unmarked) [Compound 31] | +++ (survival rate (%)≤30) | +++ (survival rate (%)≤30) | +++ (survival rate (%)≤30) | +++ (survival rate (%)≤30) | +++ (survival rate (%)≤30) | + (60≤survival rate (%)<90) | – | – | – | – | – | –
14 | COc1ccc(C2CC(=O)C(=CNc3cccc4c3CN(C3CCC(=O)NC3=O)C4=O)C(=O)C2)cc1 (centres unmarked) [Compound 32] | +++ (survival rate (%)≤30) | +++ (survival rate (%)≤30) | +++ (survival rate (%)≤30) | +++ (survival rate (%)≤30) | ++ (30<survival rate (%)≤60) | + (60≤survival rate (%)<90) | – | – | – | – | – | –
15 | COC(=O)c1ccc(C2CC(=O)C(=CNc3cccc4c3CN(C3CCC(=O)NC3=O)C4=O)C(=O)C2)cc1 (centres unmarked) [Compound 33] | +++ (survival rate (%)≤30) | +++ (survival rate (%)≤30) | +++ (survival rate (%)≤30) | +++ (survival rate (%)≤30) | +++ (survival rate (%)≤30) | + (60≤survival rate (%)<90) | – | – | – | – | – | –
16 | O=C1CCC(N2Cc3c(NC=C4C(=O)CC(C5CCCCC5)CC4=O)cccc3C2=O)C(=O)N1 (centres unmarked) [Compound 131] | + (60≤survival rate (%)<90) | +++ (survival rate (%)≤30) | ++ (30<survival rate (%)≤60) | – | +++ (survival rate (%)≤30) | + (60≤survival rate (%)<90) | – | – | – | – | – | –

From patent US11021457B2, “Class of isoindolone-imide ring-1,3-dione-2-ene compounds, composition and use thereof” (WIGEN BIOMEDICINE TECHNOLOGY (SHANGHAI) CO., LTD., priority 2017, dated 2021)
